The record followed here is patent US9567345B2, “Pharmaceutically active pyrazolo-triazine derivatives” (LEAD DISCOVERY CENTER GMBH, priority 2012, dated 2017).

A value given as a limit tells only on which side of the number the result lay.

Holding throughout (assay type): biochemical
One assay concerns the target T1, CDK2/CycA (Homo sapiens, UniProt P24941).
T1 construct: purchased Proqinase
Briefly: CDK2 Enzymatic Activity Assay (Lance Kinase Activity Assay, FRET). The settings on record: for IC50: Table 5B, class symbols per IC50 [nM] ranges of b581, read-out: CDK2: Selectivity of CDK7 inhibition over CDK2 inhibition. As for the experimental part: This protocol describes how the Lance Kinase Activity Assay was performed to determine IC50 values of compounds of general formula (I) against CDK/Cyclin complexes. The principle behind this enzymatic assay is based upon the phosphorylation of the Ulight-Peptide Substrat. It is detected by using a specific EU-labeled anti-phospho peptide antibody.
Binding of an inhibitor to the kinase prevents phosphorylation of the Ulight-MBP Substrat, resulting in a loss of FRET.
CDK2 Enzymatic Activity Assay
The compounds of general formula (I) exemplary summarized in Table 1 were diluted from a 10 mM DMSO stock solution 1:10 in a total volume of 15 μl DMSO. This compound predilution was then serial diluted 1:3 over 8 steps in DMSO and briefly spun down. Each compound solution was now diluted 1:20 in Enzymatic Buffer (HEPES: 50 mM, pH: 7.5; MgCl2: 10 mM; EGTA: 1 mM; DTT: 2 mM; Tween-20: 0.01%), mixed thoroughly and spun down.
For positive controls, 2 μl of DMSO working solution were mixed with 6 μl CDK2/CycA/substrate working solution and 2 μl ATP working solution. Positive and negative controls were calculated from at least 8 different wells. The 384 well plates were mixed in a Teleshaker plate mixer (Beckman Coulter, Brea, Calif., USA) at 2000 rpm for 40 sec, and incubated for 1 h at room temperature before addition of 10 μl LANCE Detection Buffer (EDTA: […]; Eu-Anti-P-MBP: 4 nM) per well. Plates were mixed in a Teleshaker plate mixer (Beckman Coulter, Brea, Calif., USA) at 2000 rpm for 40 sec, followed by incubation with Detection Buffer for 1 h, and reading. […] IC50 values were determined from the sigmoidal dose response curves with the software Quattro Workflow (Quattro GmbH, Munich, Germany).

The next assay deals with CDK7/CycH/Mat1 (Homo sapiens, UniProt P50613). Briefly: CDK7 Enzymatic Activity Assay (Lance Kinase Activity Assay, FRET). Particulars: CDK7/CycH/Mat1, 25 μM ATP final; class ranges; read-out: CDK7: IC50 [nM] for CDK7 inhibition. The method in brief:
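TR-FRET (LANCE) kinase assay: CDK7/CycH/Mat1 phosphorylates Ulight-MBP substrate for 1 h at room temperature in pH 7.5 HEPES buffer; detection 1 h with Eu-labelled anti-phospho antibody plus EDTA.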

The next assay addresses CDK9/Cyclin T1 (Homo sapiens, UniProt P50750). Briefly: CDK9 Enzymatic Activity Assay (Lance Kinase Activity Assay, FRET). The settings on record: for IC50: Table 5B, class symbols per IC50 [nM] ranges of b581, read-out: CDK9: Selectivity of CDK7 inhibition over CDK9 inhibition. A digest of the protocol: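 CDK9/cyclin T1 phosphorylation of a ULight-MBP peptide was run for 1 h at room temperature in pH 7.5 HEPES buffer with MgCl2, EGTA, DTT and Tween-20. It was followed by 1 h with Eu-anti-phospho-MBP antibody (4 nM) in EDTA detection buffer. TR-FRET loss gave IC50 from 8-point, 1:3 sigmoidal dose-response curves.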

CDK7/CycH/Mat1, sequence (P50613 whole entry): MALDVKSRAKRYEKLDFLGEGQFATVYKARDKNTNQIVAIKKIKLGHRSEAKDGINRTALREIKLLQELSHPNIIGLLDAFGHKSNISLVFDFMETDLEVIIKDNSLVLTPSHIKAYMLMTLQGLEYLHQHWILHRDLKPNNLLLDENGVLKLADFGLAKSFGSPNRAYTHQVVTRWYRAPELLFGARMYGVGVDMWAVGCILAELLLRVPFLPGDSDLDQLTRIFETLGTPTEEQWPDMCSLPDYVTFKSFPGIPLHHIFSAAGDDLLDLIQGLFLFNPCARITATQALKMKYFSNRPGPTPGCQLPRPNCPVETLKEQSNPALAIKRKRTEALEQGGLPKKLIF
CDK9/Cyclin T1, sequence (P50750 whole entry): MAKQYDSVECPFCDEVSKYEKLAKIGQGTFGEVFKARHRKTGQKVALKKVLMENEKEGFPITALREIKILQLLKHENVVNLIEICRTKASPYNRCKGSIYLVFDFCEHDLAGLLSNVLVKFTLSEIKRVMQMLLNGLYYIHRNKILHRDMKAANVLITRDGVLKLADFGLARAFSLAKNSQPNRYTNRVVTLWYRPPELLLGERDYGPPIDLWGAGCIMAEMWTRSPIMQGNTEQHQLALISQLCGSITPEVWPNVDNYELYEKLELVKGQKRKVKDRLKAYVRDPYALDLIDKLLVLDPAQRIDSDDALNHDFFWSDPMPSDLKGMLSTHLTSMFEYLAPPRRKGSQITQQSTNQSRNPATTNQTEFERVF
CDK9/Cyclin T1, sequence (O60563 whole entry partner): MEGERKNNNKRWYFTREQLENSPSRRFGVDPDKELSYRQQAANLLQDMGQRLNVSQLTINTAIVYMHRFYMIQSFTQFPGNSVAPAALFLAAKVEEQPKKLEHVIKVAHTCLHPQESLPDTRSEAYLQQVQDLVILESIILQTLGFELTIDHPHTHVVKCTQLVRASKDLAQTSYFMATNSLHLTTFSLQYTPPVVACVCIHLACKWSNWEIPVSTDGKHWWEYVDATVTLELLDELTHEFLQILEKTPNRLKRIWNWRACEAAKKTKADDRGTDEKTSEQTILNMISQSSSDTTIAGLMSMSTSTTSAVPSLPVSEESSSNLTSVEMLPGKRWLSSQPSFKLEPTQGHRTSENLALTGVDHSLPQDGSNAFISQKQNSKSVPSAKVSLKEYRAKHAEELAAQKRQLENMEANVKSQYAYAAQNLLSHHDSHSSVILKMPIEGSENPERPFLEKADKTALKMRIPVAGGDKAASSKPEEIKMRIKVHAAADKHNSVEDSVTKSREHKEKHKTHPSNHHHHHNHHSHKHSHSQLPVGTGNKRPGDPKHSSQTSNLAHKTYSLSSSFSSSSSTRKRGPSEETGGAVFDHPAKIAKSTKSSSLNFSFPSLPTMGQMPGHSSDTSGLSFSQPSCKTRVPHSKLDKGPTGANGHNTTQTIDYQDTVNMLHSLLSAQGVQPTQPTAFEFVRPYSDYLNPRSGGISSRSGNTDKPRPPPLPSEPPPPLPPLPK

With `CC(C)c1cnn2c(NCc3ccccc3C3CC3)nc(O[C@@H]3CCCNC3)nc12` (stereo in doubt) [(VII-143), N-(2-cyclopropylbenzyl)-8-isopropyl-2-(piperidin-3-yloxy)pyrazolo[1,5-a][1,3,5]triazin-4-amine], the IC50 at CDK2/CycA lay within 500 to 2500 nM; at CDK7/CycH/Mat1, 10 to 25 nM; at CDK9/Cyclin T1, 500 to 2500 nM.
Consider `CC(C)c1cnn2c(NCc3ccccc3-n3cccn3)nc(OC3CCNCC3)nc12` [(VII-01), N-(2-(1H-pyrazol-1-yl)benzyl)-8-isopropyl-2-(piperidin-4-yloxy) pyrazolo[1,5-a][1,3,5]triazin-4-amine], for which the IC50 was 50 to 500 nM on CDK2/CycA, under 5 nM at CDK7/CycH/Mat1 and over 2500 nM at CDK9/Cyclin T1.
For `CC(C)c1cnn2c(NCc3ccccc3-n3cccn3)nc(O[C@@H]3CCNC3)nc12` [(VII-02), (R)-N-(2-(1H-pyrazol-1-yl)benzyl)-8-isopropyl-2-(pyrrolidin-3-yloxy)pyrazolo[1,5-a][1,3,5]triazin-4-amine] the same measures were under 50 nM, under 5 nM and 500 to 2500 nM.
For `CC(C)c1cnn2c(NCc3ccccc3-n3cccn3)nc(O[C@@H]3CCCNC3)nc12` [(VII-03), (R)-N-(2-(1H-pyrazol-1-yl)benzyl)-8-isopropyl-2-(piperidin-3-yloxy)pyrazolo[1,5-a][1,3,5]triazin-4-amine] the same measures were under 50 nM, under 5 nM and 50 to 500 nM.
For `CC(C)c1cnn2c(NCc3ccccc3-n3cccn3)nc(OC3COC4(CCNCC4)C3)nc12` (centres unmarked) [(VII-05), 2-(1-oxa-8-azaspiro[4.5]decan-3-yloxy)-N-(2-(1H-pyrazol-1-yl)benzyl)-8-isopropylpyrazolo[1,5-a][1,3,5]triazin-4-amine] the same measures were over 2500 nM, under 5 nM and over 2500 nM.
As to `CC(C)c1cnn2c(NC(C)c3ccccc3-n3cccn3)nc(O[C@@H]3CCCNC3)nc12` (stereo partly drawn) [(VII-06), N-(1-(2-(1H-pyrazol-1-yl)phenyl)ethyl)-8-isopropyl-2-((R)-piperidin-3-yloxy)pyrazolo[1,5-a][1,3,5]triazin-4-amine], the IC50 at CDK2/CycA was over 2500 nM; at CDK7/CycH/Mat1 it was under 5 nM; at CDK9/Cyclin T1, 50 to 500 nM.
For `CC(C)c1cnn2c(NCc3ccccc3-c3ccccc3)nc(O[C@@H]3CCCNC3)nc12` [(VII-07), (R)-N-([1,1′-biphenyl]-2-ylmethyl)-8-isopropyl-2-(piperidin-3-yloxy)pyrazolo[1,5-a][1,3,5]triazin-4-amine] the same measures were 500 to 2500 nM, under 5 nM and 50 to 500 nM.
Taken in the same sequence, the figures for `CC(C)c1cnn2c(NCc3ccccc3-c3ccccc3)nc(O[C@@H]3CCNC3)nc12` [(VII-08), (R)-N-([1,1′-biphenyl]-2-ylmethyl)-8-isopropyl-2-(pyrrolidin-3-yloxy)pyrazolo[1,5-a][1,3,5]triazin-4-amine] were 500 to 2500 nM, 5 to 10 nM and 500 to 2500 nM.
For `CC(C)c1cnn2c(NCc3ccccc3-c3ccccc3)nc(OC3CCNCC3)nc12` [(VII-09), N-([1,1′-biphenyl]-2-ylmethyl)-8-isopropyl-2-(piperidin-4-yloxy)pyrazolo[1,5-a][1,3,5]triazin-4-amine] the same measures were over 2500 nM, under 5 nM and over 2500 nM.
As for `COc1ccccc1[C@H](C)Nc1nc(O[C@@H]2CCNC2)nc2c(C(C)C)cnn12` [(VII-11), 8-isopropyl-N-((S)-1-(2-methoxyphenyl)ethyl)-2-((R)-pyrrolidin-3-yloxy)pyrazolo[1,5-a][1,3,5]triazin-4-amine], the IC50 lay in the range of 500 to 2500 nM at CDK2/CycA, 5 to 10 nM on CDK7/CycH/Mat1 and 500 to 2500 nM at CDK9/Cyclin T1.
Regarding `CC(C)c1cnn2c(NCc3ccccc3-c3cccs3)nc(O[C@@H]3CCCNC3)nc12` [(VII-12), (R)-8-isopropyl-2-(piperidin-3-yloxy)-N-(2-(thiophen-2-yl)benzyl)pyrazolo[1,5-a][1,3,5]triazin-4-amine], the IC50 on CDK2/CycA was under 50 nM; on CDK7/CycH/Mat1, under 5 nM; on CDK9/Cyclin T1, 50 to 500 nM.
As to `CC(C)c1cnn2c(NCc3ccccc3-c3cccs3)nc(O[C@@H]3CCNC3)nc12` [(VII-13), (R)-8-isopropyl-2-(pyrrolidin-3-yloxy)-N-(2-(thiophen-2-yl)benzyl)pyrazolo[1,5-a][1,3,5]triazin-4-amine], the IC50 was 50 to 500 nM at CDK2/CycA, under 5 nM at CDK7/CycH/Mat1 and 500 to 2500 nM on CDK9/Cyclin T1.
Taken in the same sequence, the figures for `CC(C)c1cnn2c(NCc3ccccc3-c3cccs3)nc(OC3CCNCC3)nc12` [(VII-14), 8-isopropyl-2-(piperidin-4-yloxy)-N-(2-(thiophen-2-yl)benzyl)pyrazolo[1,5-a][1,3,5]triazin-4-amine] were 50 to 500 nM, under 5 nM and 500 to 2500 nM.
For `CC(C)Oc1ccccc1CNc1nc(O[C@@H]2CCNC2)nc2c(C(C)C)cnn12` [(VII-16), (R)-N-(2-isopropoxybenzyl)-8-isopropyl-2-(pyrrolidin-3-yloxy)pyrazolo[1,5-a][1,3,5]triazin-4-amine] the same measures were 500 to 2500 nM, under 5 nM and over 2500 nM.
Taken in the same sequence, the figures for `CC(C)Oc1ccccc1CNc1nc(O[C@@H]2CCCNC2)nc2c(C(C)C)cnn12` [(VII-18), (R)-N-(2-isopropoxybenzyl)-8-isopropyl-2-(piperidin-3-yloxy)pyrazolo[1,5-a][1,3,5]triazin-4-amine] were 50 to 500 nM, under 5 nM and 500 to 2500 nM.
Take `CC(C)c1cnn2c(NCc3ccccc3-n3cncn3)nc(O[C@@H]3CCNC3)nc12` [(VII-21), (R)-N-(2-(1H-1,2,4-triazol-1-yl)benzyl)-8-isopropyl-2-(pyrrolidin-3-yloxy)pyrazolo[1,5-a][1,3,5]triazin-4-amine]: the IC50 at CDK2/CycA was under 50 nM; at CDK7/CycH/Mat1 it was under 5 nM; on CDK9/Cyclin T1 it was 500 to 2500 nM.
Taken in the same sequence, the figures for `CC(C)c1cnn2c(NCc3ccccc3-n3cncn3)nc(OC3CCNCC3)nc12` [(VII-22), N-(2-(1H-1,2,4-triazol-1-yl)benzyl)-8-isopropyl-2-(piperidin-4-yloxy)pyrazolo[1,5-a][1,3,5]triazin-4-amine] were 50 to 500 nM, under 5 nM and 500 to 2500 nM.
Take `Cc1nccn1-c1ccccc1CNc1nc(O[C@@H]2CCCNC2)nc2c(C(C)C)cnn12` [(VII-23), (R)-8-isopropyl-N-(2-(2-methyl-1H-imidazol-1-yl)benzyl)-2-(piperidin-3-yloxy)pyrazolo[1,5-a][1,3,5]triazin-4-amine]: the IC50 at CDK2/CycA is 500 to 2500 nM; at CDK7/CycH/Mat1, under 5 nM.
Consider `CC(C)c1cnn2c(NCc3ccccc3-n3ccnc3)nc(O[C@@H]3CCCNC3)nc12` [(VII-26), (R)-N-(2-(1H-imidazol-1-yl)benzyl)-8-isopropyl-2-(piperidin-3-yloxy)pyrazolo[1,5-a][1,3,5]triazin-4-amine], for which the IC50 at CDK2/CycA is 50 to 500 nM; at CDK7/CycH/Mat1, under 5 nM; on CDK9/Cyclin T1, 50 to 500 nM.
Consider `CN1CC[C@H](c2c(O)cc(O)c3c(=O)cc(-c4ccccc4Cl)oc23)[C@H](O)C1` [Flavopiridol, reference compound], for which, on CDK2/CycA (selectivity CDK2 vs CDK7, enzymatic IC50 values), the “multiplicity of the CDK2 activity in terms of the CDK7 activity” value was “even lower than the CDK 7 activity”. In addition, the “multiplicity of the CDK9 activity in terms of the CDK7 activity” value at CDK9/Cyclin T1 (selectivity CDK9 vs CDK7, enzymatic IC50 values) is “even lower than the CDK 7 activity”.
Take `CC(C)c1cnn2c(NCc3ccccc3C(F)(F)F)nc(OC3CCN(C)CC3)nc12` [VII-058, 8-isopropyl-2-((1-methylpiperidin-4-yl)oxy)-N-(2-(trifluoromethyl)benzyl)pyrazolo[1,5-a][1,3,5]triazin-4-amine]: the IC50 on CDK2/CycA and on CDK9/Cyclin T1 was over 2500 nM in each case.
With `CC(C)c1cnn2c(NCc3ccccc3-n3cccn3)nc(OC3CNC3)nc12` [VII-141, N-(2-(1H-pyrazol-1-yl)benzyl)-2-(azetidin-3-yloxy)-8-isopropylpyrazolo[1,5-a][1,3,5]triazin-4-amine], the IC50 is 500 to 2500 nM at CDK2/CycA and over 2500 nM at CDK9/Cyclin T1.
